This is an account of results in patent publication US11326992B2 (priority 2016, dated 2022).

SMILES strings stand for the structures.

Data set [1] in a line: Short term on-card stability. The conditions noted are these: day 28, stored in the presence of air (RT+Air and −20° C.+Air).
The conditions of data set [2]: morphine value marked (base); cited from earlier work.
Data set [3] in a line: Blood:Plasma binding ratio of guanfacine test sample. The format is in vitro ADME. As to conditions: whole blood sample; read-out: Blood:Plasma binding ratio (Ke/p). The method, then: The multilayer device of the invention was tested using a known hypertension and ADHD drug, guanfacine, with its [^13C, ^15N3] internal standard, Guanfacine (C9H9Cl2N3O) has a monoisotopic mass of 245.0123 Da, while the internal standard [^13C, ^15N3]-guanfacine (^13CC8H9Cl2^15N3O) has a monoisotopic mass of 249.0067 Da. These compounds were tested using a whole blood sample with a Blood:Plasma binding ratio (Ke/p) of 1.5 and analyzed using LC-MS/MS bioanalysis following the protocol described here.

The mark [4] stands for this setting: High QC 900 ng/mL, ANOVA p<0.0001.

For the compound `COc1ccc2c3c1O[C@H]1C(=O)CC[C@H]4[C@@H](C2)N(C)CC[C@]314` [Hydrocodone], the on-card stability result is “significant decompositions” in data set [1] (setting [4]) and “significant decomposition” in data set [1] (LLOQ 5 ng/mL, ANOVA).

As usually defined, the pKa is the pH at which an ionisable group is half protonated. `CNC(C)Cc1ccc2c(c1)OCO2` (centres unmarked) [MDMA, 3,4-methylenedioxymethamphetamine]: the pKa in data set [2] is 9.9.

Take `CNC(C)C(=O)c1ccc(C)cc1` (centres unmarked) [Mephedrone]: the on-card stability entry in data set [1] (setting [4]) was “significant decompositions”; in data set [1] (LLOQ 5 ng/mL, ANOVA), “significant decomposition”. Further, the pKa in data set [2] is 9.0.

With `CNC(C)Cc1ccccc1` (centres unmarked) [Methamphetamine], the pKa in data set [2] is on record as 9.9.

For the compound `COc1ccc2c3c1O[C@H]1C(=O)CC[C@@]4(O)[C@@H](C2)N(C)CC[C@]314` [Oxycodone], the on-card stability result in data set [1] (setting [4]) was “significant decompositions”; in data set [1] (LLOQ 5 ng/mL, ANOVA) it was “significant decomposition”.

Regarding `CC(C)(N)Cc1ccccc1` [Phentermine], in data set [2], the pKa is recorded as 10.1.

`N=C(N)NC(=O)Cc1c(Cl)cccc1Cl` [guanfacine]: the blood plasma ratio in data set [3] was 1.5.
